Measured values taken from US11230544B1, “Substituted 1,3,4-thiadiazoles as GLS1 inhibitors” (MEDSHINE DISCOVERY INC., priority 2018, dated 2022).
Structures can show the parent of a compound that is named as a salt.

How the values were obtained:
GLS1 = molecular target: T1, GLS1 (Homo sapiens, UniProt O94925); test: Activity test of compounds in a GLS1 coupling reaction system; type: biochemical; conditions: enzyme GLS1 2 nM, 4.5 mM L-glutamine, 1 hour preincubation at 23° C.
T1 sequence (O94925 73-669 limits assumed): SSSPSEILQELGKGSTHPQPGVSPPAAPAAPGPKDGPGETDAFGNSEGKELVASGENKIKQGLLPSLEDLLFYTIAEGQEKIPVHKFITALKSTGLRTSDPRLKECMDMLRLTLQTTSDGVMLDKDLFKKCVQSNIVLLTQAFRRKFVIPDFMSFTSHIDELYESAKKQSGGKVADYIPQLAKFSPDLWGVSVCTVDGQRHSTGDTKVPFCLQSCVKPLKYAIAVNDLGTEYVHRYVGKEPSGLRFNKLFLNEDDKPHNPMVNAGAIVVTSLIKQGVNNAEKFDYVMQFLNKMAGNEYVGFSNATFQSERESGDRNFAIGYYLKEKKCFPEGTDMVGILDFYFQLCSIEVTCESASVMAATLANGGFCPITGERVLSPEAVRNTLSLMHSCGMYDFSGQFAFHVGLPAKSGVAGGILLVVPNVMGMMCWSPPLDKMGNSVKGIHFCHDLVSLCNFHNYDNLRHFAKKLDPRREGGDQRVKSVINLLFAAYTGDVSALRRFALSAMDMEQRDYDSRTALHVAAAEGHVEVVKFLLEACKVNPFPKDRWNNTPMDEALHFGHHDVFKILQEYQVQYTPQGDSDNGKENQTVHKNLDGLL
Protocol: Experimental Example 1: Activity Test of Compounds in a GLS1 Coupling Reaction System
The final concentration of each component in the final experimental buffer was 50 mM Tris-HCl pH 8.0, 0.25 mM EDTA, 150 mM K2HPO4, 0.1 mg/mL BSA, 1 mM DTT, and 0.01% o Triton X-100.
the 1× assay buffer was used to prepare “solution A” in the experiment (solution A contained L-glutamine, NAD+ and GLDH), and the final concentration of each component in the final experimental reaction system was 4.5 mM L-glutamine, 2 mM NAD+, and 4 U/mL GLDH; the 1× assay buffer was used to prepare “solution B” in the experiment—2× enzyme solution (solution B contained enzyme GLS1), and the final concentration of GLS1 in the final experimental reaction system was 2 nM.
The experiment plate was the plate prepared by Labcyte's ECHO that contained the gradient concentration of the compound and the corresponding DMSO solution before the experiment:
The experiment plate was taken out, and 20 μL of solution B (an enzyme GLS1 solution) was add to the 2nd to 23rd columns of the experiment plate, and then 20 μL of assay buffer was added to the 1st and 24th columns of the experiment plate, wherein the 1st and 24th columns were used as control groups of the experimental system; the plate was centrifuged at 1000 rpm for 30 seconds; the plate was sealed and incubated at 23° C. for 1 hour; I after 1 hour incubation, 20 μL of solution A was added to columns 1 to 24 of the experiment plate (i.e., addition of samples to the whole plate); the plate was centrifuged at 1000 […] for 30 seconds; the experiment plate was placed on SpectraMax 340PC, and read continuously for 20 minutes in the dynamic mode (the reading interval was set to 1 minute).

[1] = Pharmacokinetic evaluation of compounds in mice; type: in vivo; conditions: mouse, plasma, female C57BL/6 mice; for bioavailability: oral, gavage vs intravenous; for half-life: tail intravenous injection and gavage, read-out: T1/2 (half-life) (converted); for half-life / AUC(0-inf) / Cmax: route not given; for Cmax: read-out: Cmax (peak concentration)
Protocol: Experimental Example 2: Pharmacokinetic Evaluation of Compounds
Objective: To test the in vivo pharmacokinetics of the compounds in mice
C57BL/6 mice (female, 7-9 weeks old, Shanghai SLAC)
Experiment operations: The clear solution obtained by dissolving the test compound was administered to female C57BL/6 mice (overnight fasting, 7-9 weeks old) via tail intravenous injection and gavage, respectively. After administration of the test compound or the control compound, blood was collected from the mandibular vein of the intravenous injection group at 0.0833, 0.25, 0.5, 1, 2, 4, 6, 8 and 24 hours, and of the gavage group at 0.0833, 0.25, 0.5, 1, 2, 4, 6, 8 and 24 hours, respectively, and centrifuged to obtain plasma. The LC-MS/MS method was used to determine the blood drug concentration, and the WinNonlin™ Version 6.3 pharmacokinetic software was used to calculate the relevant pharmacokinetic parameters by the non-compartmental model linear logarithmic trapezoidal method.

[2] = system: human myeloma RPMI-8226 cell; test: In vivo pharmacodynamic study, CB-17 SCID nude mouse subcutaneous xenograft model of human myeloma RPMI-8226 cell; design: species or system mouse xenograft of human cells; conditions: for Tumor volume (mm^3) (Day 14): Mean ± SEM, PO, Poma 1 mg/kg QD, CB-839 or compound 2 100 mg/kg (D1-D10) 150 mg/kg (D11-D14) BID
Excerpt: Experimental Example 3 In Vivo Pharmacodynamic Study of a CB-17 SCID Nude Mouse Subcutaneous Xenograft Model of Human Myeloma RPMI-8226 Cell
Objective: Pomalidomide is used to treat multiple myeloma, and this experiment is used to study and evaluate the in vivo efficacy of the test compound combined with pomalidomide in the CB-17 SCID nude mouse subcutaneous xenograft model of human myeloma RPMI-8226 cell.
Experiment animals: female CB-17 SCID nude mice, 6 to 8 weeks old, with the body weigh of 18 to 22 grams; Supplier: Shanghai Lingchang Biological Technology Co., Ltd.
Human myeloma RPMI 8226 cells were cultured in a monolayer in vitro. The culture conditions were: RPMI 1640 medium (brand: gibco—22400089, batch: 1894220) supplemented with 10% fetal bovine serum, 100 U/mL penicillin and 100 μg/mL streptomycin, at 37° C. and 5% CO2. Conventional digestion treatment with pancreatin-EDTA for passage was carried out twice a week. When the cell confluence reached 80% to 90%, the cells were harvested, counted and inoculated.
0.2 mL (6×10^6 cells) of RPMI 8226 cells (supplemented with matrigel in a volume ratio of 1:1) were subcutaneously inoculated on the right back of each mouse. The grouping and administration were started when the average tumor volume reached 374 mm^3.
The test compound (compound 2) was formulated into a clear solution of 10 mg/mL, and the solvent was a 10 mM citric acid buffer containing 0.2% Tween-80 and 25% hydroxypropyl-β-cyclodextrin, pH=4. CB-839 was formulated into a clear solution of 10 mg/mL, and the solvent was a 10 mM citric acid buffer containing 25% hydroxypropyl-β-cyclodextrin, pH=2.2. Pomalidomide (Poma) was formulated into a clear solution of 0.1 mg/mL, and the solvent was 20% PEG400+80% (20% hydroxypropyl-β-cyclodextrin).
The experimental index was to investigate whether the tumor growth was inhibited, delayed or cured. Tumor diameter was measured twice a week with a vernier caliper. The calculation formula of tumor volume was V=0.5a×b^2, wherein a and b represented the long and short diameters of the tumor, respectively.
The anti-tumor efficacy of the compound was evaluated by TGI (%) or relative tumor proliferation rate T/C (%). TGI (%) reflected the tumor growth inhibition rate. Calculation of TGI (%): TGI (%)=[1−(average tumor volume at the end of administration in a treatment group−average tumor volume at the beginning of administration in this treatment group)/(average tumor volume at the end of administration in the solvent control group-average tumor volume at the beginning of administration in the solvent control group)]×100%.
Relative tumor proliferation rate T/C (%): the calculation formula was as follows: T/C %=TRTV/CRTV×100% (TRTV: mean RTV of the treatment group; CRTV: mean RTV of the negative control group). The relative tumor volume (RTV) was calculated according to the results of the tumor measurement. The calculation formula was RTV=Vt/V0, where V0 was the tumor volume measured at beginning of the grouping and administration (i.e., d0), and Vt was the tumor volume at the time of a certain measurement. TRTV and CRTV were obtained from the data on the same day.
Statistical analysis included mean value and standard error (SEM) of the tumor volume of each group at each time point (see Table 4 for specific data). […] The comparison between two groups was analyzed by T-test, and the comparison between three or more groups was analyzed by one-way ANOVA.
Statistical analysis of synergy: method for calculating Q value (also known as King's formula method) was as follows: Q=TGIA+B/(TGIA+TGIB−TGIA×TGIB). TGIA, TGIB and TGIA+B were the tumor inhibition rates when drug A was used alone, drug B was used alone, and drug A and drug B were used in combination, respectively.
In the experiment, the effect of the test compound on the weight of the animal was investigated. […]

| IC50 (GLS1) [µM] | SMILES | also measured |
| --- | --- | --- |
| 0.133 | CO[C@H](C(=O)Nc1nnc(NC2CC=C(c3ccc(N)nn3)CC2)s1)c1cc(OC(F)(F)F)ccc1F (stereo partly shown) [Compound 7 (hydrochloride salt)] | – |
| 0.18 | CO[C@H](C(=O)Nc1nnc(NC2CC=C(c3cc4cc[nH]c4nn3)CC2)s1)c1cc(OC(F)(F)F)ccc1F (stereo partly shown) [Compound 13 (trifluoroacetate salt)] | – |
| 0.757 | CO[C@H](C(=O)Nc1nnc(NC2CCC(c3cc4cc[nH]c4nn3)CC2)s1)c1cc(OC(F)(F)F)ccc1F (stereo partly shown) [Compound 14] | – |
| 0.0965 | COC(C(=O)Nc1nnc(NC2CC=C(c3cccnn3)CC2)s1)c1cc(OC(F)(F)F)ccc1F (single isomer, unassigned) [Compound 2] | bioavailability [1]: 34.8%; half-life [1]: 3.93 h; AUC(0-inf) [1]: 134 µM·h; Cmax [1]: 36.8 µM |
| 0.17 | COC(C(=O)Nc1nnc(NC2CCC(c3cccnn3)CC2)s1)c1cc(OC(F)(F)F)ccc1F (single isomer, unassigned) [Compound 3] | – |
| 0.132 | COC(C(=O)Nc1nnc(NC2CC=C(c3cccnn3)CC2)s1)c1cc(OC(F)(F)F)ccc1F (single isomer, unassigned) [Compound 1] | – |

Further lines, the compound ahead of its results:

| SMILES | IC50 (GLS1) [µM] | also measured |
| --- | --- | --- |
| COC(C(=O)Nc1nnc(NC2CCC(c3cccnn3)CC2)s1)c1cc(OC(F)(F)F)ccc1F (single isomer, unassigned) [Compound 4] | 4.9 | – |
| CO[C@H](C(=O)Nc1nnc(N[C@H]2CC[C@@H](c3cccnn3)CC2)s1)c1ccccc1 [Compound 10 (hydrochloride salt)] | 1.59 | – |
| CO[C@H](C(=O)Nc1nnc(NC2CCC(c3cc(C(=O)O)cnn3)CC2)s1)c1cc(OC(F)(F)F)ccc1F (stereo partly shown) [Compound 6 (hydrochloride salt)] | 1.69 | – |
| CO[C@H](C(=O)Nc1nnc(NC2CCC(c3cc(C)cnn3)CC2)s1)c1cc(OC(F)(F)F)ccc1F (stereo partly shown) [Compound 5 (hydrochloride salt)] | 0.469 | – |
| O=C(Cc1cccc(OC(F)(F)F)c1)Nc1ccc(CCCCc2nnc(NC(=O)Cc3ccccn3)s2)nn1 [CB-839, reference compound] | – | bioavailability [1]: 27.1%; half-life [1]: 4.69 h; AUC(0-inf) [1]: 27.7 µM·h; Cmax [1]: 18.1 µM |
| Nc1cccc2c1C(=O)N(C1CCC(=O)NC1=O)C2=O (stereo not shown) [Poma, Pomalidomide] | – | Tumor volume (mm^3) (Day 14) ([2]; Day 14 after administration): 1542 ± 259 mm^3; Tumor volume (mm^3) (Day 14) ([2]; Day 14 after administration, listed as pomalidomide): 1,542 mm^3; anti-tumor effect compared with the solvent control group ([2]; Day 14 after administration, result in words): no significant anti-tumor effect; T/C (%) ([2]; relative tumor proliferation rate, Day 14, vs solvent control group): 68.8%; RTV (Day 14) ([2]; relative tumor volume Vt/V0, Day 14, same dosing as tumor volume): 4.22 ± 0.50; TGI (%) ([2]; tumor growth inhibition rate, Day 14, vs solvent control group): 34.0% |
| COC(C(=O)Nc1nnc(N[C@H]2CC[C@@H](c3cccnn3)CC2)s1)c1cccc(OC(F)F)c1 (stereo partly shown) [Compound 11 (trifluoroacetate salt)] | 0.72 | – |
| COC(C(=O)Nc1nnc(N[C@H]2CC[C@@H](c3cccnn3)CC2)s1)c1cccc(OC(F)(F)F)c1 (stereo partly shown) [Compound 9 (hydrochloride salt)] | 0.502 | – |
| COc1cc(C(OC)C(=O)Nc2nnc(N[C@H]3CC[C@@H](c4cccnn4)CC3)s2)ccc1F (stereo partly shown) [Compound 12 (trifluoroacetate salt)] | 4.71 | – |
| COc1cccc(C(OC)C(=O)Nc2nnc(N[C@H]3CC[C@@H](c4cccnn4)CC3)s2)c1 (stereo partly shown) [Compound 8 (trifluoroacetate salt)] | 0.577 | – |
